The source of these data is PMC6271011, “Synthesis, Leishmanicidal and Cytotoxic Activity of Triclosan-Chalcone, Triclosan-Chromone and Triclosan-Coumarin Hybrids” (Molecules, 2014).

Values joined by “and” are separate entries in the source; they are usually repeats but may differ in a detail not shown here. Equal entries are not always repeated. Where two headings read alike, the source gives them in different places. Bounds are passed on as bounds.

Data set [1] concerns human promonocytic cell line U937. Put plainly: in vitro. The note with it: U-937 cells, MTT, 72 h, Lethal Concentration 50. As to the method:
(§1) The cytotoxic activity of the compounds was assessed based on the viability of the human promonocytic cell line U937 (ATCC CRL-1593.2^TM) evaluated by the MTT (3-(4,5-dimethylthiazol-2-yl)-2,5-diphenyltetrazolium bromide) assay. In brief, cells were grown in 96-well cell-culture dishes at a concentration of 100,000 cells/mL in RPMI-1640 supplemented with 10% FBS and the corresponding concentrations of the compounds, starting at 200 µg/mL in duplicate. The cells were incubated at 37 °C with 5% CO2 for 72 h in the presence of the compounds, and then the effect was determined using the MTT assay, incubating at 37 °C for 3 h. The effect of the compounds was determined by measuring the activity of the mitochondrial dehydrogenase by adding 10 µL/well of MTT solution (0.5 mg/mL) and incubating at 37 °C for 3 h. The reaction was stopped by adding a 50% isopropanol solution with 10% sodium dodecyl sulfate for 30 min. Cell viability was determined based on the quantity of formazan produced, according to the optical density (O.D) obtained at 570 nm in a Bio-Rad (Hercules, CA, USA) ELISA instrument. Cultured cells in the absence of extracts were used as viability controls, while meglumine antimoniate and amphotericin B were used as cytotoxicity controls. Assays were performed twice with three replicates per each concentration tested.
(§2) Cytotoxicity was determined according to viability and mortality percentages obtained for each isolated experiment (compounds, amphotericin B, meglumine antimoniate and culture medium alone). The results were expressed as 50 lethal concentrations (LC50), that corresponds to the concentration necessary to eliminate 50% of cells, calculated by Probit analysis. Percentage of viability was calculated by Equation (1), where the optical density (O.D) of control, corresponds to 100% of viability. In turn, mortality percentage corresponds to 100% viability: % Viability = (O.D Exposed cells)/(O.D Control cells) × 100 (1)
(§3) The degree of toxicity was established according to the LC50 value using the following scale: highly toxic: LC50 < 50 μg/mL, toxic: LC50 > 50 to < 100 μg/mL; moderately toxic: LC50 > 100 to < 200 μg/mL and potentially non-toxic: LC50 > 200 μg/mL.

Data set [2] concerns intracellular amastigotes of L. (V) panamensis. Put plainly: Leishmanicidal activity against intracellular amastigotes (GFP, flow cytometry, 72 h). The data set is classed as cell-based, Leishmania (Viannia) panamensis. The note with it: for Leishmanicidal activity % Inhibition: intracellular amastigotes; for SI (Selectivity Index = LC50/EC50): LC50 U-937 / EC50 intracellular amastigotes. As for the experimental part: The leishmanicidal activity of compounds was evaluated on intracellular amastigotes of L. panamensis transfected with the green fluorescent protein gene (MHOM/CO/87/UA140pIR-GFP). Effect of each compound was determined according to the inhibition of the infection evidenced by both decrease of the infected cells and decrease of intracellular parasite load. Briefly, U-937 human cells at a concentration of 3 × 10^5 cells/mL in RPMI 1640 and 0.1 μg/mL of PMA (phorbol-12-myristate-13-acetate) were infected with promastigotes in stationary phase growth in a 15:1 parasites per cell ratio and incubated at 34 °C and 5% CO2 for 3 h. Cells were washed two times with phosphate buffer solution (PBS) to eliminate not internalized parasites. Fresh RPMI 1640 1 mL was added and cells were incubated during 24 h to guarantee multiplication of intracellular parasites.
After 24 h of infection, the culture medium was replaced by fresh culture medium containing each compound at concentrations of 20 μg/mL. After 72 h, the inhibition of the infection progress was determined. Cells were removed from the bottom plate with a trypsin/EDTA (250 mg) solution. Recovered cells were centrifuged at 1100 rpm during 10 min at 4 °C, the supernatant was discarded and cells were washed with 1 mL of cold PBS and centrifuged at 1100 rpm during 10 min at 4 °C. Supernatant was discarded and cells were suspended in 500 μL of PBS and analyzed by flow cytometry (FC 500MPL, Cytomics, Brea, CA, USA) counting 20.000 events. All determinations for each compound and standards were carried out in triplicate, in two isolated experiments. Activity of tested compounds was carried out in parallel with infection progress in culture medium alone and in culture medium with amphotericin B 0.05 μg/mL and meglumine antimoniate (10.0 μg/mL) as control drugs. […] The infected cells were exposed against each concentration of synthesized compounds during 72 h, then, cells were removed and tested by flow cytometry as described before.
Antileishmanial activity was determined according to percentage of infected cells and parasite load obtained for each experimental condition by the cytometer. Percentage of infected cells was determined as the number of positive events by double fluorescence (green for parasites and red for cells) using dotplot analysis. On the other hand, the parasitic load was determined by analysis of mean fluorescence intensity (MFI).
The parasitemia inhibition was calculated by Equation (2), where the MFI of control, corresponds to 100% of parasitemia. In turn, inhibition percentage corresponds to 100% Parasitemia.
The selectivity index (SI), was calculated by dividing the cytotoxic activity and the leishmanicidal activity using the following formula: SI = CL50/CE50.
(In general: A flow cytometer gives signals particle by particle.)

Data set [3] shares this test system. Described as above. The class given is cell-based, Leishmania (Viannia) panamensis. The conditions noted are these: for inhibition at 20 µg/mL: read-out: Leishmanicidal activity % Inhibition; for EC50: intracellular amastigotes in U-937 cells.
The next data set is described as follows: in vitro. The note with it: human. As for the experimental part:
as §1, §2, §3

As for “3,4-dimethoxy-4'-hydroxychalcone [3,4-Dimethoxy-4'-hydroxychalcone (6), reference compound]”, the “Cytotoxicity LC50” value in data set [1] worked out at 13.9 ± 1.4 µg/mL. The CC50 in data set [1] (read-out: Cytotoxicity LC50) is 48.9 µM. For the same compound, in data set [2] (at 20 µg/mL, 72 h), the “Leishmanicidal activity % Inhibition” value was found to be 52.4 ± 6.5%. Also, the “Leishmanicidal activity EC50” value in data set [2] (intracellular amastigotes in U-937 cells, 72 h) is 20.03 ± 1.4 µg/mL. Besides, the EC50 (usually the midpoint of the concentration-response curve) in data set [2] (intracellular amastigotes in U-937 cells, 72 h, read-out: Leishmanicidal activity EC50 (converted)) is 70.5 µM.
For `Cc1cc(=O)oc2cc(O)ccc12` [7-Hydroxy-4-methylcoumarin (11), 7-hydroxy-4-methylcoumarin, reference compound], the inhibition (commonly the share of the control response that was lost under treatment) at 20 µg/mL in data set [3] (intracellular amastigotes) was determined as 15.3 ± 0.1%.
Consider `O=c1ccoc2cc(O)ccc12` [7-Hydroxychromone (20), 7-hydroxychromone, reference compound], for which the inhibition at 20 µg/mL in data set [3] (intracellular amastigotes) turned out to be 14.8 ± 0.9%.
On to `C[C@@H]1[C@H](O)[C@@H](C)/C=C/C=C/C=C/C=C/C=C/C=C/C=C/[C@H](O[C@@H]2O[C@H](C)[C@@H](O)[C@H](N)[C@@H]2O)C[C@@H]2O[C@](O)(C[C@@H](O)C[C@@H](O)[C@H](O)CC[C@@H](O)C[C@@H](O)CC(=O)O[C@H]1C)C[C@H](O)[C@H]2C(=O)O` [Amphotericin B, reference compound], for which, in “in vitro”, the CC50 at 72 h was 42.1 µg/mL and 45.6 µM. In data set [3] (Dose employed: 0.05 µg/mL, intracellular amastigotes), the inhibition at 0.05 µg/mL stood at 69.1 ± 1.3%. In data set [3], the EC50 was 0.06 µg/mL and 100 nM.
In the case of `COc1ccc(/C=C/C(=O)c2ccc(OCCCOc3cc(Cl)ccc3Oc3ccc(Cl)cc3Cl)cc2)cc1OC` [Compound 7, (2E)-1-(4-{3-[5-Chloro-2-(2,4-dichlorophenoxy)phenoxy]propoxy}phenyl)-3-(3,4-dimethoxyphenyl) prop-2-en-1-one], the CC50 at 72 h in the data set “in vitro” is > 200 µg/mL and > 327 µM. Further, the inhibition at 20 µg/mL in data set [3] (intracellular amastigotes) worked out at 67.4 ± 17.2%. For the same compound, the concentration for a half-maximal effect (EC50) in data set [3] is 9.4 µg/mL and 15.4 µM. Further, the “SI (Selectivity Index = LC50/EC50)” value in data set [2] is recorded as above 21.3.
Turning to `COc1ccc(/C=C/C(=O)c2ccc(OCCCCOc3cc(Cl)ccc3Oc3ccc(Cl)cc3Cl)cc2)cc1OC` [Compound 8, (2E)-1-(4-{4-[5-Chloro-2-(2,4-dichlorophenoxy)phenoxy]butoxy}phenyl)-3-(3,4-dimethoxyphenyl) prop-2-en-1-one], in the data set “in vitro”, the CC50 at 72 h was > 200 µg/mL and > 319 µM. Further, the inhibition at 20 µg/mL in data set [3] (intracellular amastigotes) was found to be 67.8 ± 19%. Further, the EC50 in data set [3] was 10.2 µg/mL and 16.3 µM. Besides, in data set [2], the “SI (Selectivity Index = LC50/EC50)” value is above 19.6.
For the compound `COc1ccc(/C=C/C(=O)c2ccc(OCCCCCOc3cc(Cl)ccc3Oc3ccc(Cl)cc3Cl)cc2)cc1OC` [Compound 9, (2E)-1-[4-({5-[5-Chloro-2-(2,4-dichlorophenoxy)phenoxy]pentyl}oxy)phenyl]-3-(3,4-imethoxyphenyl) prop-2-en-1-one], the CC50 at 72 h in the data set “in vitro” was > 200 µg/mL and > 311 µM. The inhibition at 20 µg/mL in data set [3] (intracellular amastigotes) was 69.5 ± 8.6%. Also, the EC50 in data set [3] was 13.5 µg/mL and 21.1 µM. For the same compound, the “SI (Selectivity Index = LC50/EC50)” value in data set [2] is on record as above 14.8.
On to `COc1ccc(/C=C/C(=O)c2ccc(OCCCCCCCCOc3cc(Cl)ccc3Oc3ccc(Cl)cc3Cl)cc2)cc1OC` [Compound 10, (2E)-1-[4-({8-[5-Chloro-2-(2,4-dichlorophenoxy)phenoxy]octyl}oxy)phenyl]-3-(3,4-dimethoxyphenyl) prop-2-en-1-one], for which the CC50 at 72 h in “in vitro” is > 200 µg/mL and > 293 µM.
Regarding `Cc1cc(=O)oc2cc(OCCCOc3cc(Cl)ccc3Oc3ccc(Cl)cc3Cl)ccc12` [Compound 16, 7-{3-[5-Chloro-2-(2,4-dichlorophenoxy)phenoxy]propoxy}-4-methyl-2H-chromen-2-one], the CC50 at 72 h in “in vitro” was > 200 µg/mL and > 397 µM. In addition, the inhibition at 20 µg/mL in data set [3] (intracellular amastigotes) was below 50%. In data set [2] (at 20 µg/mL, 72 h), the “Leishmanicidal activity % Inhibition” value stood at 34.0 ± 0.3%.
Turning to `Cc1cc(=O)oc2cc(OCCCCOc3cc(Cl)ccc3Oc3ccc(Cl)cc3Cl)ccc12` [Compound 17, 7-{4-[5-Chloro-2-(2,4-dichlorophenoxy)phenoxy]butoxy}-4-methyl-2H-chromen-2-one], the CC50 at 72 h in the data set “in vitro” is > 200 µg/mL and > 386 µM. Further, the inhibition at 20 µg/mL in data set [3] (intracellular amastigotes) stood at 57.1 ± 11.5%. For the same compound, the EC50 in data set [3] was 27.5 µg/mL and 53.1 µM. The “SI (Selectivity Index = LC50/EC50)” value in data set [2] is on record as above 7.3.
As to `Cc1cc(=O)oc2cc(OCCCCCOc3cc(Cl)ccc3Oc3ccc(Cl)cc3Cl)ccc12` [Compound 18, 7-({5-[5-Chloro-2-(2,4-dichlorophenoxy)phenoxy]pentyl}oxy)-4-methyl-2H-chromen-2-one], the CC50 at 72 h in the data set “in vitro” was > 200 µg/mL and > 376 µM.
For the compound `Cc1cc(=O)oc2cc(OCCCCCCCCOc3cc(Cl)ccc3Oc3ccc(Cl)cc3Cl)ccc12` [Compound 19, 7-({8-[5-Chloro-2-(2,4-dichlorophenoxy)phenoxy]octyl}oxy)-4-methyl-2H-chromen-2-one], the CC50 at 72 h in the data set “in vitro” was > 200 µg/mL and > 348 µM.
On to `O=c1ccoc2cc(OCCCOc3cc(Cl)ccc3Oc3ccc(Cl)cc3Cl)ccc12` [Compound 25, 7-{3-[5-Chloro-2-(2,4-dichlorophenoxy)phenoxy]propoxy}-4H-chromen-4-one], for which the CC50 at 72 h in the data set “in vitro” is 6.4 µg/mL and 13.1 µM. For the same compound, the inhibition at 20 µg/mL in data set [3] (intracellular amastigotes) stood at 94.4 ± 2.9%. Besides, the EC50 in data set [3] was 2.7 µg/mL and 5.5 µM. Also, the “SI (Selectivity Index = LC50/EC50)” value in data set [2] was found to be 2.4.
For `O=c1ccoc2cc(OCCCCOc3cc(Cl)ccc3Oc3ccc(Cl)cc3Cl)ccc12` [Compound 26, 7-{4-[5-Chloro-2-(2,4-dichlorophenoxy)phenoxy]butoxy}-4H-chromen-4-one], in the data set “in vitro”, the CC50 at 72 h was 15.8 µg/mL and 31.3 µM. Also, in data set [3] (intracellular amastigotes), the inhibition at 20 µg/mL came out at 91 ± 9.6%. Further, the concentration for a half-maximal effect (EC50) in data set [3] was 7.5 µg/mL and 14.9 µM. Besides, the “SI (Selectivity Index = LC50/EC50)” value in data set [2] was 2.1.
For the compound `O=c1ccoc2cc(OCCCCCOc3cc(Cl)ccc3Oc3ccc(Cl)cc3Cl)ccc12` [Compound 27, 7-({5-[5-Chloro-2-(2,4-dichlorophenoxy)phenoxy]pentyl}oxy)-4H-chromen-4-one], in the data set “in vitro”, the CC50 at 72 h is 25.8 µg/mL and 49.8 µM. In data set [3] (intracellular amastigotes), the inhibition at 20 µg/mL came out at 75.5 ± 1.5%. For the same compound, the 50% effective concentration (EC50) in data set [3] is 16 µg/mL and 30.9 µM. The “SI (Selectivity Index = LC50/EC50)” value in data set [2] is listed as 1.6.
In the case of `O=c1ccoc2cc(OCCCCCCCCOc3cc(Cl)ccc3Oc3ccc(Cl)cc3Cl)ccc12` [Compound 28, 7-({8-[5-Chloro-2-(2,4-dichlorophenoxy)phenoxy]octyl}oxy)-4H-chromen-4-one], the CC50 at 72 h in the data set “in vitro” is 80 µg/mL and 143 µM. Besides, the inhibition at 20 µg/mL in data set [3] (intracellular amastigotes) was 28.4 ± 2.1%.
For “meglumine antimoniate [Sb(V), reference compound]”, in data set [1], the “Cytotoxicity LC50” value was determined as 495.9 ± 55.6 µg/mL. Further, the “Leishmanicidal activity % Inhibition” value in data set [2] (Dose employed: 10 µg/mL, 72 h) is on record as 79.4 ± 2.1 ^h %.
